Source: patent US4348393A, “N-Aryl oxazolidinones, oxazolidinethiones, pyrrolidinones, pyrrolidines and thiazolidinones” (Delalande S.A., priority 1978, dated 1982)

What was measured:
[1] = system: ptosis observed one hour after reserpine; test: Test B: antagonism of reserpine-induced ptosis in mice; format: in vivo; conditions: Mus musculus, 1 h, po, antagonism of ptosis one hour after reserpine 2 mg/kg intravenous, read-out: Test B ED 50
Procedure: Test B: Antagonism with respect to the ptosis observed one hour after an intravenous injection (2 mg/kg) of reserpine given to mice, following the protocol described by C.

Toxicity LD50 mouse = conditions: in vivo, po, read-out: Toxicity LD 50
[2] = system: generalized trembling caused by dl-5-hydroxytryptophane; test: Test A: potentiation in mice of generalized trembling caused by dl-5-hydroxytryptophane; format: in vivo; conditions: Mus musculus, po, mice, potentiation of trembling by dl-5-hydroxytryptophane 200 mg/kg interperitoneal, read-out: Test A ED 50
Procedure: Test A: Potentiation in mice of generalized trembling caused by an interperitoneal injection (200 mg/kg) of dl-5-hydroxytryptophane, following the protocol described by C. GOURET and G. RAYNAUD in J. Pharmacol. (Paris), (1974), 5, 231.

Row | SMILES | ED50 [1] [mg/kg] | LD50 (Toxicity LD50 mouse) [mg/kg] | ED50 [2] [mg/kg]
1 | CCOCC1CN(c2ccc(OCc3cccc([N+](=O)[O-])c3)cc2)C(=S)O1 (stereo not drawn) [compound 216] | 3 | 1000 | 5
2 | COCC1CN(c2ccc(-c3ccccc3)cc2)C(=O)O1 (stereo not drawn) [compound 195] | 2.2 | > 1000 | 1.2
3 | CNCC1CN(c2ccc(OCc3cccc([N+](=O)[O-])c3)cc2)C(=O)O1 (stereo not drawn) [compound 85] | 2 | 1000 | 3
4 | COCC1CN(c2ccc(OCc3cccc([N+](=O)[O-])c3)cc2)C(=S)O1 (stereo not drawn) [compound 118] | 0.1 | > 2000 | 1
5 | O=[N+]([O-])c1cccc(COc2ccc(N3CC(CO)OC3=S)cc2)c1 (stereo not drawn) [compound 94] | 1 | > 2000 | 1.5
6 | N#Cc1cc(COc2ccc(N3CC(CO)OC3=S)cc2)ccc1F (stereo not drawn) [compound 209] | 6.7 | 1000 | 7
7 | N#Cc1cccc(COc2ccc(N3CC(CN)OC3=O)cc2)c1 (stereo not drawn) [compound 205] | 3 | > 1000 | 10.1
8 | CCC(=O)OCC1CN(c2ccc(OCc3cccc(C#N)c3)cc2)C(=O)O1 (stereo not drawn) [compound 132] | 2 | > 2000 | 3
